# In patent publication EP0007206A1, “Phenethanolamines, their formulations, preparation and use” (ELI LILLY AND COMPANY, priority 1978, dated 1980):
# Counter-ions that a name gives are not always drawn.
# Legend:
# [1] = tested on: Chinese hamster ovary cells; assay: mitotic arrest assay (mitotic inhibitory activity); type: cell-based; settings: 20.0 mcg/ml, five hours contact
# Procedure: One such test, for example, was a determination of mitotic inhibitory activity. The compounds of this invention have the ability to arrest cultured cells at the mitotic phase (metaphase) of the cell cycle without apparent effect on other stages of the cell cycle. Such mitotic inhibitory activity is an indication that the compounds may have a beneficial effect on the biological activities of antineoplastic drugs. […] The compounds of the invention were administered at 20 mcg./ml. and the number of cells arrested at the mitotic phase out of 1000 cultured cells were counted and compared to the controls which underwent mitotic arrest without a drug present. Two evaluations were carried out for each test compound. The results reported are the percent of cells held at mitosis after five hours contact with the compound of this invention.
# [2] = tested on: aly fast tumor strain of bronchiogenic carcinoma of the lung; assay: combination chemotherapy with cytoxan, implanted bronchiogenic carcinoma (Table 4); type: in vivo, hamsters; settings: cytoxan 10 mg./kg. i.p. once daily, A 10 mg./kg. s.c. twice daily
# Procedure: (§1) In a typical experiment, laboratory mice were infected by a subcutaneous implantation of a tumor tissue in the axillary region of the body. The implantations were accomplished by means of a trocar. Initial tumor size in each animal generally was about 2 square millimeters. Tumor size was then measured periodically as length and width in mm. Typical tumor systems implanted included adenocarcinoma 755, an Aly Fast strain of bronchiogenic carcinoma, and mecca lymphosarcoma. Oncolytic agents utilized in the tests to determine the potentiating effects of the compounds of the invention.include cytoxan, 5-fluorouracil, vindesine, methotrexate and 6-mercaptopurine. Twenty or thirty infected animals generally were selected as controls and received placebo. Ten infected animals normally were selected to receive a known oncolytic agent. Another ten infected animals were administered the known oncolytic agent in addition to a compound of this invention.
# In a similar test, hamsters were infected with an aly fast tumor strain of bronchiogenic carcinoma of the lung. Cytoxan was administered to one group of infected animals at an intraperitoneal dose of 10 mg./kg. once daily. A compound of this invention, N-(2-phenyl-2-hydroxyethyl)-l,l-dimethyl-3-(4-hydroxyphenyl)propylaminium bromide (designated in Table 4 as A), caused a significant synergistic effect when co-administered with cytoxan. Cytoxan was administered i.p. once daily at 10 mg./kg. to the animals receiving the combination chemotherapy, and compound A was administered subcutaneously at the rate of 10 mg./kg. twice daily. It should be noted that the average tumor size for the animals receiving the combination of cytoxan and N-(2-phenyl-2-hydroxyethyl)-l,l-dimethyl-3-(4-hydroxyphenyl)-propylaminium bromide was only 20 square millimeters after the nineteenth day of treatment, while the average tumor size for the group receiving cytoxan was about the same as that for the animals receiving placebo, namely about 1340 square millimeters.
# [3] = tested on: 755 adenocarcinoma; assay: combination chemotherapy with cytoxan at varying doses, implanted 755 adenocarcinoma (Table 8); type: in vivo
# Procedure: as §1
# A similar study was carried out with cytoxan at varying doses and the combination of cytoxan and N-(2-phenyl-2-hydroxyethyl)-l,l-dimethyl-3-(4-aminocarbonylphenyl)propylaminium chloride. A group of ten animals infected with the 755 adenocarcinoma were given cytoxan intraperitoneally at the rate of 25 mg./kg. once per day on days 5, 9 and 13 of the test. Another group of infected animals received cytoxan at 12.5 mg./kg. once per day on days 5, 9 and 13. A third group of infected animals received the combination of cytoxan, given i.p. at 12.5 mg./kg. on days 5, 9 and 13, and the compound of this invention (compound B) given subcutaneously twice daily on days 5 through 14 at the dose of 7.5 mg./kg. As indicated by the data, all of the control animals and those receiving the oncolytic agent alone were dead after 73 days. In contrast, six of the ten animals which received combination chemotherapy were still living after 73 days of the test, and all of those still living were tumor free.
# [4] = tested on: adenocarcinoma (CA 755 tumor); assay: combination chemotherapy with vindesine, implanted adenocarcinoma (Table 5); type: in vivo, mice; settings: vindesine 0.6 mg./kg. i.p. days 1, 5, 9, 13, B 7.5 mg./kg. i.p. twice daily first 15 days
# Procedure: as §1
# The animals receiving combination chemotherapy were administered vindesine intraperitoneally according to the above-indicated dosage regimen, and N-(2-phenyl-2-hydroxyethyl)-1,1-dimethyl-3-(4-aminocarbonylphenyl)propylaminium chloride was administered intraperitoneally at the rate of 7.5 mg./kg. twice daily for the first 15 days of the test. Under column I of each of the indicated days of measurement is given the average tumor size in square millimeters for each test group. Column II under each of the indicated days of measurement provides the number of tumor free animals out of those still living on that particular day in each test group. […] In contrast, all of the control animals and those receiving vindesine alone had died by day 40, and none were tumor free after the thirteenth day of the test.
# [5] = Day 5, cytoxan 12.5 mg./kg. i.p. days 5, 9, 13, B 7.5 mg./kg. s.c. twice daily days 5 through 14
# [6] = Day 5, cytoxan 25 mg./kg. i.p. once per day on days 5, 9, 13
# [7] = Day 12, cytoxan 12.5 mg./kg. i.p. days 5, 9, 13, B 7.5 mg./kg. s.c. twice daily days 5 through 14
# [8] = Day 12, cytoxan 25 mg./kg. i.p. once per day on days 5, 9, 13
# [9] = Day 17, cytoxan 12.5 mg./kg. i.p. days 5, 9, 13, B 7.5 mg./kg. s.c. twice daily days 5 through 14
# [10] = Day 17, cytoxan 25 mg./kg. i.p. once per day on days 5, 9, 13
# [11] = Day 23, cytoxan 12.5 mg./kg. i.p. days 5, 9, 13, B 7.5 mg./kg. s.c. twice daily days 5 through 14
# [12] = Day 23, cytoxan 25 mg./kg. i.p. once per day on days 5, 9, 13
# [13] = Day 29, cytoxan 12.5 mg./kg. i.p. days 5, 9, 13, B 7.5 mg./kg. s.c. twice daily days 5 through 14
# [14] = Day 29, cytoxan 25 mg./kg. i.p. once per day on days 5, 9, 13
smiles,measurement,setting,value
"CC(C)(CCc1ccc(O)cc1)NCC(O)c1ccccc1 (racemic) [N-(2-Phenyl-2-hydroxyethyl)-l,l-dimethyl-3-(4-hydroxyphenyl)propylamine]",Mitotic Index (percent of cells held at mitosis),[1]; first of two evaluations,36%
same,Mitotic Index (percent of cells held at mitosis),[1]; second of two evaluations,33%
"CN(C)C(=O)c1ccc(CCC(C)(C)NCC(O)c2ccccc2)cc1 (racemic) [N-(2-phenyl-2-hydroxyethyl)-1,1-dimethyl-3-(4-dimethylaminocarbonylphenyl)propylaminium oxalate]",Mitotic Index (percent of cells held at mitosis),[1]; first of two evaluations,40%
same,Mitotic Index (percent of cells held at mitosis),[1]; second of two evaluations,46%
"CNC(=O)c1ccc(CCC(C)(C)NCC(O)c2ccccc2)cc1 (racemic) [N-(2-phenyl-2-hydroxyethyl)-l,l-dimethyl-3-(4-methylaminocarbonylphenyl)propylaminium chloride]",Mitotic Index (percent of cells held at mitosis),[1]; first of two evaluations,36%
same,Mitotic Index (percent of cells held at mitosis),[1]; second of two evaluations,38%
"O=P1(N(CCCl)CCCl)NCCCO1 (centres unmarked) [Cytoxan, cytoxan]",number of surviving animals out of test group,[2]; Day 0,10/10
same,average tumor size,[2]; Day 8,560 square millimeters
same,number of surviving animals out of test group,[2]; Day 8,10/10
same,average tumor size,[2]; Day 13,950 square millimeters
same,number of surviving animals out of test group,[2]; Day 13,9/10
same,average tumor size,[2]; Day 19,1340 square millimeters
same,number of surviving animals out of test group,[2]; Day 19,6/10
same,average tumor size,"[2]; Day 19, listed as cytoxan",about 1340 square millimeters
same,number of tumor free animals out of those still living,"[3]; Day 0, cytoxan 12.5 mg./kg. i.p. days 5, 9, 13, B 7.5 mg./kg. s.c. twice daily days 5 through 14",0/10
same,number of tumor free animals out of those still living,"[3]; Day 0, cytoxan 25 mg./kg. i.p. once per day on days 5, 9, 13",0/10
same,average tumor size,[3]; [5],130
same,number of tumor free animals out of those still living,[3]; [5],0/10
same,average tumor size,[3]; [6],80
same,number of tumor free animals out of those still living,[3]; [6],0/10
same,average tumor size,[3]; [7],190
same,number of tumor free animals out of those still living,[3]; [7],0/10
same,average tumor size,[3]; [8],60
same,number of tumor free animals out of those still living,[3]; [8],1/10
same,average tumor size,[3]; [9],300
same,number of tumor free animals out of those still living,[3]; [9],0/10
same,average tumor size,[3]; [10],60
same,number of tumor free animals out of those still living,[3]; [10],4/10
same,average tumor size,[3]; [11],600
same,number of tumor free animals out of those still living,[3]; [11],1/9
same,average tumor size,[3]; [12],200
same,number of tumor free animals out of those still living,[3]; [12],2/9
same,average tumor size,[3]; [13],800
same,number of tumor free animals out of those still living,[3]; [13],0/4
same,average tumor size,[3]; [14],570
same,number of tumor free animals out of those still living,[3]; [14],0/4
same,number of tumor free animals out of those still living,"[3]; Day 73, cytoxan 12.5 mg./kg. i.p. days 5, 9, 13, B 7.5 mg./kg. s.c. twice daily days 5 through 14",0/0
same,number of tumor free animals out of those still living,"[3]; Day 73, cytoxan 25 mg./kg. i.p. once per day on days 5, 9, 13",0/0
"CC(C)(CCc1ccc(C(N)=O)cc1)NCC(O)c1ccccc1 (centres unmarked) [N-(2-Phenyl-2-hydroxyethyl)-1,1-dimethyl-3-(4-aminocarbonylphenyl)propylamine]",Mitotic Index (percent of cells held at mitosis),[1]; first of two evaluations,57%
same,Mitotic Index (percent of cells held at mitosis),[1]; second of two evaluations,45%
"CCC1(O)CC2CN(CCc3c([nH]c4ccccc34)C(C(=O)OC)(c3cc4c(cc3OC)N(C)C3C(O)(C(N)=O)C(O)C5(CC)C=CCN6CCC43C65)C2)C1 (centres unmarked) [VDS, vindesine]",number of tumor free animals out of those still living,[4]; Day 0,0/10
same,average tumor size,[4]; Day 8,35 square millimeters
same,number of tumor free animals out of those still living,[4]; Day 8,3/9
same,average tumor size,[4]; Day 13,170 square millimeters
same,number of tumor free animals out of those still living,[4]; Day 13,0/8
same,average tumor size,[4]; Day 19,300 square millimeters
same,number of tumor free animals out of those still living,[4]; Day 19,0/8
same,average tumor size,[4]; Day 26,620 square millimeters
same,number of tumor free animals out of those still living,[4]; Day 26,0/6
same,number of tumor free animals out of those still living,[4]; Day 40,0/0
